Data on 15 compounds can be found in US11312719B2, “9-substituted amino triazolo quinazoline derivatives as adenosine receptor antagonists, pharmaceutical compositions and their use” (Merck Sharp & Dohme Corp., priority 2018, dated 2022).

Experiment [1] addresses human A2a adenosine receptor (Homo sapiens (Human), UniProt P29274). Put plainly: A2a receptor affinity radioligand binding assay ([3H] SCH58261). The following applies: membranes from HEK293 or CHO cells expressing human A2a receptor. How it is done:
The A2a receptor affinity binding assay measured the amount of binding of a tritiated ligand with high affinity for the A2a adenosine receptor to membranes made from HEK293 or CHO cells recombinantly expressing the human A2a adenosine receptor, in the presence of varying concentrations of a compound of the invention.
Measurement of A2a Binding Affinity Using Radioligand Binding
148 μL (5 μg/mL) membranes (Perkin Elmer, Cat. No. RBHA2aM400UA) and 2 μL compounds of the invention to be tested (test compound) were transferred to individual wells of a 96-well polypropylene assay plate and incubated for 15 to 30 minutes at room temperature. [^3H] SCH58261 ((7-(2-phenylethyl)-5-amino-2-(2-furyl)-pyrazolo-[4,3-e]-1,2,4-triazolo[1,5-c]pyrimidine)) was diluted in assay buffer (50 mM Tris pH 7.4, 10 mM MgCl2, 0.005% Tween20) to a concentration of 4 nM and 50 μL transferred to each well of the assay plate. To define total and non-specific binding, wells containing 1% DMSO and 1 μM ZM241385 (Tocris Bioscience, Cat. No. 1036) respectively, were also included. The assay plate was incubated at room temperature for 60 minutes with agitation. Using a FilterMate Harvester® (Perkin Elmer), the contents of the assay plate were filtered through a UniFilter-96® PEI coated plate (Perkin Elmer Cat. No. 6005274 or 6005277). Filtering was achieved by aspirating the contents of the assay plate for 5 seconds, then washing and aspirating the contents three times with ice-cooled wash buffer (50 mM Tris-HCl pH 7.4, 150 mM NaCl) and allowing the vacuum manifold to dry the plate for 30 seconds. The filter plate was incubated for at least 1 hour at 55° C., and allowed to dry. The bottom of the filter plate was sealed with backing tape. 40 μL Ultima Gold™ (Perkin Elmer, Cat. No. 6013329) was added to each well of the filter plate and the top of the plate was sealed with TopSeal-A PLUS® clear plate seal (Perkin Elmer, Cat. No. 6050185). The plate was incubated for at least 20 minutes, and then the amount of radioactivity remaining in each well was determined using a TopCount® (Perkin Elmer) scintillation counter. After normalization to total and non-specific binding, the percent effect at each compound concentration was calculated. The plot of percent effect versus the log of compound concentration was analyzed electronically using a 4-parameter logistic fit based on the Levenberg-Marquardt algorithm to generate IC50 values.

The target in experiment [2] is human A2b adenosine receptor (Homo sapiens (Human), UniProt P29275). Put plainly: A2b radioligand filtration binding assay. The conditions noted are these: membranes from HEK293 cells expressing human A2b receptor. How it is done: Measurement of A2b Binding Affinity
The reported affinity of the compounds of the invention for the human A2b adenosine receptor was determined experimentally using a radioligand filtration binding assay. This assay measures the amount of binding of a tritiated proprietary A2b receptor antagonist, in the presence and absence of a compound of the invention, to membranes made from HEK293 cells recombinantly expressing the human A2b adenosine receptor (Perkin Elmer, Cat. No. ES-013-C).
148 μL (135 μg/mL) membranes and 2 μL test compounds were transferred to individual wells of a 96-well polypropylene assay plate and incubated for 15 to 30 minutes at room temperature with agitation. Tritiated radioligand was diluted to a concentration of 14 nM in assay buffer (phosphate buffered saline without Magnesium and Calcium, pH 7.4; GE Healthcare Life Sciences, Cat. No. SH30256.01) and then 50 μL of the solution were transferred to each well of the assay plate. To define total and non-specific binding, wells containing 1% DMSO and 20 μM N-ethylcarboxamidoadenosine (Tocris Bioscience, Cat. No. 1691) respectively, were also included. The wells of the assay plate were incubated at room temperature for 60 minutes with agitation, then filtered using a FilterMate Harvester® (Perkin Elmer) or similar equipment through a UniFilter-96® PEI coated plate (Perkin Elmer Cat. No. 6005274 or 6005277). Filtering was achieved by aspirating the contents of the assay plate for 5 seconds, then washing and aspirating the contents three times with ice-cooled wash buffer (assay buffer supplemented with 0.0025% Brij58) and allowing the vacuum manifold to dry the plate for 30 seconds. The filter plate was incubated for at least 1 hour at 55° C. and allowed to dry. The bottom of the filter plate was then sealed with backing tape. 40 μL Ultima Gold™ (Perkin Elmer, Cat. No. 6013329) was added to each well of the filter plate and the top of the plate was sealed with TopSeal-A PLUS® clear plate seal (Perkin Elmer, Cat. No. 6050185). The plates were then incubated for at least 20 minutes, and then the amount of radioactivity remaining in each well was determined using a TopCount® (Perkin Elmer) scintillation counter. After normalization to total and non-specific binding, the percent effect at each compound concentration was calculated. The plot of percent effect versus the log of compound concentration was analyzed electronically using a 4-parameter logistic fit based on the Levenberg-Marquardt algorithm to generate IC50 values.

Sequence of human A2a adenosine receptor (P29274 whole entry): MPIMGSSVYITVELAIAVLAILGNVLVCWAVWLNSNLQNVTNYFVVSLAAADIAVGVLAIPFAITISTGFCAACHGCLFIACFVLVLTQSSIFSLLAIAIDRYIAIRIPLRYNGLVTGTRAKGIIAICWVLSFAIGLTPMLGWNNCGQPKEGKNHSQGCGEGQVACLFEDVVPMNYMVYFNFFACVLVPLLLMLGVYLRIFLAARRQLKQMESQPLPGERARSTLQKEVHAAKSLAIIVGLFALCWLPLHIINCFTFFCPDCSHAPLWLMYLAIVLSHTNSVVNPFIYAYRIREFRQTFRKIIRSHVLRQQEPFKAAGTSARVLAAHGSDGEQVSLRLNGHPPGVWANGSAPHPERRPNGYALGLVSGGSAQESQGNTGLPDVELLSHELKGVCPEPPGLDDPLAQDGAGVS
Sequence of human A2b adenosine receptor (P29275 whole entry): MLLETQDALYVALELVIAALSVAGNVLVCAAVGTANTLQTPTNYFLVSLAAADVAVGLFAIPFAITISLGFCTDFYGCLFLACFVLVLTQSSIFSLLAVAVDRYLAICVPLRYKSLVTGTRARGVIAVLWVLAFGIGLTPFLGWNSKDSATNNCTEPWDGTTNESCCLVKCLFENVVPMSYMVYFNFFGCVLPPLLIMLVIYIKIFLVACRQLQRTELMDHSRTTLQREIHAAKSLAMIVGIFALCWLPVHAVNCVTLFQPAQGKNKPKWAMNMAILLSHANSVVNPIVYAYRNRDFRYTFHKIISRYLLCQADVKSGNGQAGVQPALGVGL

As to `COc1cc(F)cc2c1nc(N)n1nc([C@H]3CC[C@@H](C)N(c4cn(CC(C)(C)O)nc4C)C3)nc21` (single isomer, unassigned) [Example 117, 1-(4-((2R or 2S,5S or 5R)-5-(5-amino-9-fluoro-7-methoxy-[1,2,4]triazolo[1,5-c]quinazolin-2-yl)-2-methylpiperidin-1-yl)-3-methyl-1H-pyrazol-1-yl)-2-methylpropan-2-ol], the IC50 (in general, the concentration needed to halve the response being measured) in experiment [1] was 0.0002 µM; in experiment [2], 0.013 µM.
Taken in the same sequence, the figures for `COc1cc2nc(N)n3nc(C4CCCN(c5cnn(CC(C)(C)O)c5)C4=O)nc3c2cc1F` (racemic) [Example 139, rac-3-(5-amino-9-fluoro-8-methoxy-[1,2,4]triazolo[1,5-c]quinazolin-2-yl)-1-(1-(2-hydroxy-2-methylpropyl)-1H-pyrazol-4-yl)piperidin-2-one] were 0.0168 µM and 2.82 µM.
For `COc1cc2nc(N)n3nc([C@H]4C[C@H](F)CN(c5cnn(CC(C)(C)O)c5)C4)nc3c2cc1F` (single isomer, unassigned) [Example 81, 1-(4-((3S,5S or 3R,5R)-3-(5-amino-9-fluoro-8-methoxy-[1,2,4]triazolo[1,5-c]quinazolin-2-yl)-5-fluoropiperidin-1-yl)-1H-pyrazol-1-yl)-2-methylpropan-2-ol], the IC50 is 0.121 µM in experiment [1] and 6.58 µM in experiment [2].
Consider `COc1cc2nc(N)n3nc([C@@H]4CCCN(c5cnn(CC(C)(C)O)c5C)C4)nc3c2cc1F` [Example 8, (R)-1-(4-(3-(5-amino-9-fluoro-8-methoxy-[1,2,4]triazolo [1,5-c]quinazolin-2-yl)piperidin-l-yl)-5-methyl-1H-pyrazol-1-yl)-2-methylpropan-2-ol], for which the figures for the IC50 in experiment [1] and in experiment [2] were 0.0045 µM and 0.149 µM, respectively.
In the same order, the values of `COc1cc2nc(N)n3nc(C45CC4CN(c4cnn(CC(C)(C)O)c4)C5)nc3c2cc1F` (single isomer, unassigned) [Example 58, 1-(4-((1R,5R or 1S,5S)-1-(5-amino-9-fluoro-8-methoxy-[1,2,4]triazolo[1,5-c]quinazolin-2-yl)-3-azabicyclo[3.1.0]hexan-3-yl)-1H-pyrazol-1-yl)-2-methylpropan-2-ol] are 0.0136 µM and 0.136 µM.
As for `COc1ccc(N2CCC[C@@H](c3nc4c5cc(F)cc(OC)c5nc(N)n4n3)C2)cn1` [Example 34, (R)-9-fluoro-7-methoxy-2-(1-(6-methoxypyridin-3-yl)piperidin-3-yl)-[1,2,4]triazolo[1,5-c]quinazolin-5-amine], the concentration for half-maximal inhibition (IC50) came out at 0.0014 µM in experiment [1] and 0.0297 µM in experiment [2].
In the same order, the values of `COc1cc(F)cc2c1nc(N)n1nc(C3CC(F)CN(c4cnn(CC5(O)CCC5)c4)C3)nc21` (single isomer, unassigned) [Example 72, 1-(4-((3R,5S or 3S,5R)-3-(5-amino-9-fluoro-7-methoxy-[1,2,4]triazolo[1,5-c]quinazolin-2-yl)-5-fluoropiperidin-1-yl)-1H-pyrazol-1-yl)methyl)cyclobutan-1-ol] are 0.002 µM and 0.484 µM.
In the same order, the values of `COc1cc2nc(N)n3nc([C@@H]4CCCN(c5cnn([C@H]6C[C@@](C)(O)C6)c5)C4)nc3c2cc1F` [Example 14, (1s,3s)-3-(4-((R)-3-(5-amino-9-fluoro-8-methoxy-[1,2,4]triazolo[1,5-c]quinazolin-2-yl)piperidin-l-yl)-1H-pyrazol-1-yl)-methylcyclobutan-1-ol] are 0.003 µM and 0.225 µM.
In the case of `COc1cc(F)cc2c1nc(N)n1nc(C3CCC(C)N(c4cnn(C(C)(C)CO)c4)C3)nc21` (single isomer, unassigned) [Example 125, 2-(4-((2S or 2R,5R or 5S)-5-(5-amino-9-fluoro-7-methoxy-[1,2,4]triazolo[1,5-c]quinazolin-2-yl)-2-methylpiperidin-1-yl)-1H-pyrazol-1-yl)-2-methylpropan-1-ol], the IC50 in experiment [1] amounted to 0.0864 µM; in experiment [2], 2.5 µM.
Taken in the same sequence, the figures for `COc1cc2nc(N)n3nc([C@@H]4CCCN(c5cnc(OC(F)F)c(C)c5)C4)nc3c2cc1F` [Example 24, (R)-2-(1-(6-(difluoromethoxy)-5-methylpyridin-3-yl)piperidin-3-yl)-9-fluoro-8-methoxy-[1,2,4]triazolo[1,5-c]quinazolin-5-amine] were 0.0138 µM and 0.48 µM.
Turning to `COc1cc(F)cc2c1nc(N)n1nc(C3CCC(C)N(c4cnn(CC(C)(C)O)c4)C3)nc21` (single isomer, unassigned) [Example 121, 1-(4-((2S or 2R,5R or 5S)-5-(5-amino-9-fluoro-7-methoxy-[1,2,4]triazolo[1,5-c]quinazolin-2-yl)-2-methylpiperidin-1-yl)-1H-pyrazol-1-yl)-2-methylpropan-2-ol], the IC50 in experiment [1] was 0.0554 µM; in experiment [2], 5.34 µM.
As for `COc1cc(F)cc2c1nc(N)n1nc(C3(F)CCCN(c4cnn(CC(C)(C)O)c4)C3)nc21` (single isomer, unassigned) [Example 133, (S or R)-1-(4-(3-(5-amino-9-fluoro-7-methoxy-[1,2,4]triazolo[1,5-c]quinazolin-2-yl)-3-fluoropiperidin-1-yl)-1H-pyrazol-1-yl)-2-methylpropan-2-ol], the values for the IC50 in experiment [1] and in experiment [2] were 0.0043 µM and 0.559 µM, respectively.
For `COc1cc2nc(N)n3nc(C4CCC(C)N(c5cnn(C(C)(C)CO)c5)C4)nc3c2cc1F` (single isomer, unassigned) [Example 126, rac-2-(4-((2R or 2S,5R or 5S)-5-(5-amino-9-fluoro-8-methoxy-[1,2,4]triazolo[1,5-c]quinazolin-2-yl)-2-methylpiperidin-1-yl)-1H-pyrazol-1-yl)-2-methylpropan-1-ol], the IC50 came to 0.0026 µM in experiment [1] and 2.16 µM in experiment [2].
As for `COc1cc2nc(N)n3nc(C4CN(c5cn(CC(C)(C)O)nc5C)CCS4(=O)=O)nc3c2cc1F` (single isomer, unassigned) [Example 143, (S or R)-2-(5-amino-9-fluoro-8-methoxy-[1,2,4]triazolo[1,5-c]quinazolin-2-yl)-4-(1-(2-hydroxy-2-methylpropyl)-3-methyl-1H-pyrazol-4-yl)thiomorpholine 1,1-dioxide], the IC50 is 0.984 µM in experiment [1] and 7.56 µM in experiment [2].
As for `COc1cc2nc(N)n3nc(C4CCC(C)N(c5cnn(CC6(CF)COC6)c5)C4)nc3c2cc1F` (single isomer, unassigned) [Example 47, 9-fluor-2-((3R,6S or 3S,6R)-1-(1((3-(fluoromethyl)oxetan-3-yl)methyl)-1H-pyrazol-4-yl)-6-methylpiperidin-3-yl)-8-methoxy-[1,2,4]triazolo[1,5-c]quinazolin-5-amine], the results for the IC50 in experiment [1] and in experiment [2] were 0.0082 µM and 0.284 µM, respectively.
